The values below come from US20210121493A1, “METHODS FOR TREATING LIVER DISEASES” (Cedars-Sinai Medical Center, priority 2017, published 2021).

For one assay, the system named is HepG2 cell line. Description: Growth of HepG2 cells by BrdU incorporation. It is filed as cell-based, human. On the procedure:
HepG2 cells were treated with 100 μM SAMe, 10 μM OCA individually or combined for 24 hours. Growth was determined using BrdU incorporation. SAMe was mixed in saline and OCA was mixed in DMSO (0.1% final), which yielded the same values. As shown in Table 1 and FIG. 2, while OCA alone induced growth of the cancer cell line, SAMe inhibited growth of the cancer cell line even in the presence of OCA. SAMe, OCA and SAMe+OCA were 58.65%, 124.05% and 89.5%, respectively, of their respective controls.
(§1) HepG2 (immortalized cell line consisting of human liver carcinoma cells) cells were treated with 100 μM SAMe, 10 nM GW4064 individually or combined for 24 hours. Growth was determined using BrdU incorporation. SAMe was mixed in saline and GW4064 was mixed in DMSO (0.1% final), which yielded the same values. As shown in Table 2 and FIG. 3, while GW4064 alone induced growth of the cancer cell line, SAMe inhibited growth of the cancer cell line even in the presence of GW4064. SAMe, GW4064 and SAMe+GW4064 were 75.52%, 155.70% and 116.97%, respectively, of their respective controls.
as §1, with “Tropifexor” for “GW4064”, “Tropifexor.” for “GW4064.”, “SAMe+Tropifexor” for “SAMe+GW4064”, “151.04%” for “155.70%”, “114.77%,” for “116.97%,”
A general note: Incorporation of labelled thymidine or its analogues reports DNA synthesis.

Assay [1] relates to MzChA-1 (cholangiocarcinoma) cells or HepG2 cells. In words: xenograft mice models, tumor volume. The assay is classed as in vivo. The settings on record: SAMe 100 mg/kg/day orally. On the procedure:
Mice were injected with MzChA-1 (cholangiocarcinoma) cells or HepG2 (immortalized cell line consisting of human liver carcinoma cells) cells. In mice treated with OCA, 30/mg/kg/day of OCA was administered orally. In mice treated with SAMe, 100 mg/kg/day was administered orally.

The next assay has as its system MAFG. In words: expression of the oncogene MAFG.
The mark [2] stands for this setting: HepG2, 10 μM OCA in DMSO, 24 hours.
Where [3] appears, read: HepG2, 100 μM SAMe in saline, 24 hours.
Setting [4] is: HepG2, 100 μM SAMe, 24 hours (Example 2).
Where [5] appears, read: HepG2, 10 nM Tropifexor, 24 hours.
Setting [6] is: HepG2, 10 nM Tropifexor, 24 hours, listed as Tropi.

SMILES strings stand for the structures. Values joined by “and” are separate entries in the source; they are usually repeats but may differ in a detail not shown here. Identical values can stand only once.

Take `CC(C)c1onc(-c2c(Cl)cccc2Cl)c1COc1ccc(/C=C/c2cccc(C(=O)O)c2)c(Cl)c1` [GW4064]: the “BrdU Incorporation OD540 nm, AVE” value in the assay on HepG2 cell line (HepG2, 10 nM GW4064, 24 hours) came out at 0.1502. Further, the “BrdU Incorporation, % of respective controls” value (from here on “BrdU Incorporation, %”) in the assay on HepG2 cell line (HepG2, 10 nM GW4064, 24 hours) was determined as 155.70%; in the assay with HepG2 cell line (HepG2, 10 nM GW4064, 24 hours, listed as GW), 155.6995%.

Consider `CC[C@H]1[C@@H](O)[C@@H]2[C@H](CC[C@]3(C)[C@@H]([C@H](C)CCC(=O)O)CC[C@@H]23)[C@@]2(C)CC[C@@H](O)C[C@@H]12` [OCA, 6α-ethyl-chenodeoxycholic acid], for which, in the assay with HepG2 cell line (setting [2]), the “BrdU incorporation, Ave” value stood at 0.18; the “BrdU incorporation, single readings” value was 0.181 and 0.175 and 0.202 and 0.186 and 0.162 and 0.177. For the same compound, the “BrdU Incorporation, %” value in the assay with HepG2 cell line (HepG2, 10 μM OCA, 24 hours) was 124.05%.

Turning to `C[S+](CC[C@H](N)C(=O)O)C[C@H]1O[C@@H](n2cnc3c(N)ncnc32)[C@H](O)[C@@H]1O` (stereo partly drawn) [SAMe, S-adenosylmethionine], the “tumor volume versus control group” value in assay [1] is “lower than the control group”. For the same compound, in the assay with HepG2 cell line (setting [3]), the “BrdU incorporation, Ave” value is recorded as 0.09; the “BrdU incorporation, single readings” value is 0.103 and 0.089 and 0.101 and 0.055 and 0.075. Further, the “BrdU Incorporation, %” value with HepG2 cell line (HepG2, 100 μM SAMe, 24 hours (Example 1)) is 58.65%. Besides, in the assay with HepG2 cell line (setting [4]), the “BrdU Incorporation OD540 nm, AVE” value was found to be 0.07287; the “BrdU Incorporation OD540 nm, single readings” value was 0.065 and 0.066 and 0.064 and 0.072 and 0.059 and 0.113 and 0.08; the “BrdU Incorporation, %” value amounted to 75.52%. The “effect on expression of MAFG” value in the assay on MAFG is “decreases expression of MAFG”.

For `O=C(O)c1cc(F)c2nc(N3[C@@H]4CC[C@H]3C[C@@H](OCc3c(-c5ccccc5OC(F)(F)F)noc3C3CC3)C4)sc2c1` [Tropifexor], in the assay with HepG2 cell line (setting [5]), the “BrdU Incorporation OD540 nm, AVE” value stood at 0.1457 and the “BrdU Incorporation, %” value was 151.04%. For the same compound, in the assay with HepG2 cell line (setting [6]), the “BrdU Incorporation OD540 nm, single readings” value is 0.153 and 0.121 and 0.134 and 0.125 and 0.105 and 0.173 and 0.202; the “BrdU Incorporation, %” value turned out to be 151.0363%.
